System: MOG35-55-induced experimental autoimmune encephalomyelitis (EAE)
Experiment: MOG35-55-induced experimental autoimmune encephalomyelitis (EAE) in C57BL/6 mice
Format: in vivo
Settings: male C57BL/6 mice
Protocol: Assessment and Comparison of the Efficacy of Compounds of the Invention and DMF (Reference) in MOG35-55-Induced Experimental Autoimmune Encephalomyelitis (EAE) in C57BL/6 Mice
male C57BL/6 mice, 12 weeks old; 10 animals per treatment group;
Day 1—subcutaneous injection of MOG35-55, suspended in complete Freund's adjuvans and intraperitoneal injection of pertussis toxin.
Day 3—intraperitoneal injection of pertussis toxin.
Dimethylfumarate and test substances or vehicle only were administered via oral and intravenous route.
For oral administration, test substances were dissolved or suspended in 0.5% hydroxyethylcellulose (dissolved in 50 mM potassium dihydrogenphosphate, pH 5.0). Drug concentration in dose formulations: 11.54 mM;
Dose volume: 10 ml/kg body weight;
Start of treatment: Day 3
For intravenous administration, stock solutions were prepared in DMSO and serially diluted with phosphate buffered saline.
Observations were recorded on day 2, 4, 6, 8, 10, 12, 14 and 16.
Clinical score: grade 0-10; 0 (=no impairments), 1 (normal movement; limp tail: proximal 2/3 of the tail is limp and droopy), 2 (normal movement; whole tail is limp; 3 (wobbly walk; absent righting reflex), 4 (gait ataxia), 5 (milad paraparesis), 6 (moderate paraparesis), 7 (severe paraparesis or paraplegia), 8 (tetraparesis), 9 (moribund), 10 (death).

COC(=O)/C=C/C(=O)OCCN1CCSCC1 [Ia]
body weight (FIG. 4): substantially maintained | clinical score (grade 0-10, FIG. 3, with reference to DMF): reduced with reference to DMF

Reference: patent publication US20160214948A1, “PRODRUGS OF MONOMETHYL FUMARATE (MMF)” (RATIOPHARM GMBH, priority 2013, published 2016)
